Assay results published in the NIST ThermoML archive (doi:10.1021/acs.jced.7b00106).
“And” between values parts separate entries of the source, which are not always exact repeats. Identical values can stand only once.

Settings: Hot wire method

FC(F)(F)/C=C/Cl [(E)-1-chloro-3,3,3-trifluoroprop-1-ene]
Settings | thermal conductivity
383.11 K, 7892 kPa, Liquid | 0.06492 W/m/K
383.11 K, 8377 kPa, Liquid | 0.06527 W/m/K
383.11 K, 20088 kPa, Liquid | 0.07252 W/m/K
383.12 K, 7882 kPa, Liquid | 0.06487 W/m/K
383.12 K, 8374 kPa, Liquid | 0.06525 W/m/K
383.12 K, 20102 kPa, Liquid | 0.07254 W/m/K
383.13 K, 1307 kPa, Liquid | 0.05937 W/m/K
383.13 K, 1311 kPa, Liquid | 0.05937 W/m/K
383.13 K, 35551 kPa, Liquid | 0.08007 W/m/K
383.13 K, 35559 kPa, Liquid | 0.08009 W/m/K
383.17 K, 33010 kPa, Liquid | 0.07893 W/m/K
383.17 K, 33031 kPa, Liquid | 0.07897 W/m/K
383.19 K, 6275 kPa, Liquid | 0.06357 W/m/K
383.2 K, 884 kPa, Fluid (supercritical or subcritical phases) | 0.018 W/m/K
383.2 K, 6276 kPa, Liquid | 0.06372 W/m/K
383.2 K, 16814 kPa, Liquid | 0.07066 W/m/K
383.2 K, 16828 kPa, Liquid | 0.07087 W/m/K
383.21 K, 885 kPa, Fluid (supercritical or subcritical phases) | 0.01804 W/m/K
383.21 K, 1198 kPa, Fluid (supercritical or subcritical phases) | 0.01888 W/m/K
383.23 K, 1197 kPa, Fluid (supercritical or subcritical phases) | 0.01891 W/m/K
383.23 K, 28320 kPa, Liquid | 0.07674 W/m/K
383.24 K, 28314 kPa, Liquid | 0.07674 W/m/K
383.25 K, 13728 kPa, Liquid | 0.06881 W/m/K
383.26 K, 13716 kPa, Liquid | 0.0688 W/m/K
383.3 K, 4299 kPa, Liquid | 0.0621 W/m/K
383.3 K, 4304 kPa, Liquid | 0.06207 W/m/K
383.31 K, 24121 kPa, Liquid | 0.07463 W/m/K
383.31 K, 24128 kPa, Liquid | 0.07464 W/m/K
383.34 K, 10966 kPa, Liquid | 0.06703 W/m/K
383.35 K, 10969 kPa, Liquid | 0.06723 W/m/K
383.36 K, 2610 kPa, Liquid | 0.06058 W/m/K
383.36 K, 2618 kPa, Liquid | 0.06063 W/m/K
383.4 K, 20075 kPa, Liquid | 0.07247 W/m/K
383.4 K, 35533 kPa, Liquid | 0.07987 W/m/K
383.4 K, 35549 kPa, Liquid | 0.08004 W/m/K
383.41 K, 7887 kPa, Liquid | 0.06484 W/m/K
383.41 K, 8373 kPa, Liquid | 0.06523 W/m/K
383.41 K, 20088 kPa, Liquid | 0.07251 W/m/K
383.42 K, 999 kPa, Fluid (supercritical or subcritical phases) | 0.01831 W/m/K
383.42 K, 7894 kPa, Liquid | 0.06491 W/m/K
383.42 K, 8391 kPa, Liquid | 0.06529 W/m/K
383.43 K, 1000 kPa, Fluid (supercritical or subcritical phases) | 0.01834 W/m/K
383.44 K, 1304 kPa, Liquid | 0.05936 W/m/K
383.44 K, 1312 kPa, Liquid | 0.05942 W/m/K
383.44 K, 33007 kPa, Liquid | 0.07889 W/m/K
383.45 K, 33003 kPa, Liquid | 0.0789 W/m/K
383.49 K, 16818 kPa, Liquid | 0.07063 W/m/K
383.49 K, 16831 kPa, Liquid | 0.07066 W/m/K
383.5 K, 6277 kPa, Liquid | 0.06367 W/m/K
383.51 K, 6277 kPa, Liquid | 0.06368 W/m/K
383.51 K, 28297 kPa, Liquid | 0.07667 W/m/K
383.52 K, 28321 kPa, Liquid | 0.07671 W/m/K
383.54 K, 1198 kPa, Fluid (supercritical or subcritical phases) | 0.01908 W/m/K
383.55 K, 1198 kPa, Fluid (supercritical or subcritical phases) | 0.01907 W/m/K
383.55 K, 13721 kPa, Liquid | 0.06876 W/m/K
383.56 K, 13735 kPa, Liquid | 0.06881 W/m/K
383.6 K, 24101 kPa, Liquid | 0.07457 W/m/K
383.6 K, 24124 kPa, Liquid | 0.0746 W/m/K
383.61 K, 4288 kPa, Liquid | 0.06216 W/m/K
383.62 K, 4293 kPa, Liquid | 0.06209 W/m/K
383.65 K, 10955 kPa, Liquid | 0.067 W/m/K
383.65 K, 10973 kPa, Liquid | 0.06702 W/m/K
383.68 K, 2612 kPa, Liquid | 0.0606 W/m/K
383.68 K, 2620 kPa, Liquid | 0.06068 W/m/K
383.73 K, 8375 kPa, Liquid | 0.06521 W/m/K
383.73 K, 8381 kPa, Liquid | 0.06538 W/m/K
383.78 K, 999 kPa, Fluid (supercritical or subcritical phases) | 0.01848 W/m/K
401.38 K, 1794 kPa, Fluid (supercritical or subcritical phases) | 0.02085 W/m/K
401.39 K, 1794 kPa, Fluid (supercritical or subcritical phases) | 0.02077 W/m/K
401.48 K, 1714 kPa, Fluid (supercritical or subcritical phases) | 0.0205 W/m/K
401.48 K, 1716 kPa, Fluid (supercritical or subcritical phases) | 0.02045 W/m/K
401.53 K, 1623 kPa, Fluid (supercritical or subcritical phases) | 0.02023 W/m/K
401.56 K, 1795 kPa, Fluid (supercritical or subcritical phases) | 0.02087 W/m/K
401.57 K, 1795 kPa, Fluid (supercritical or subcritical phases) | 0.02094 W/m/K
401.58 K, 1514 kPa, Fluid (supercritical or subcritical phases) | 0.01985 W/m/K
401.58 K, 1515 kPa, Fluid (supercritical or subcritical phases) | 0.01989 W/m/K
401.61 K, 1407 kPa, Fluid (supercritical or subcritical phases) | 0.01962 W/m/K
401.62 K, 1407 kPa, Fluid (supercritical or subcritical phases) | 0.01968 W/m/K
401.65 K, 1306 kPa, Fluid (supercritical or subcritical phases) | 0.01952 W/m/K
401.65 K, 1307 kPa, Fluid (supercritical or subcritical phases) | 0.01951 W/m/K
401.67 K, 1716 kPa, Fluid (supercritical or subcritical phases) | 0.02063 W/m/K
401.69 K, 1203 kPa, Fluid (supercritical or subcritical phases) | 0.01937 W/m/K and 0.01933 W/m/K
401.71 K, 1106 kPa, Fluid (supercritical or subcritical phases) | 0.01926 W/m/K
401.72 K, 1106 kPa, Fluid (supercritical or subcritical phases) | 0.01925 W/m/K
401.72 K, 1623 kPa, Fluid (supercritical or subcritical phases) | 0.0203 W/m/K
401.73 K, 1623 kPa, Fluid (supercritical or subcritical phases) | 0.02026 W/m/K
401.75 K, 847 kPa, Fluid (supercritical or subcritical phases) | 0.01914 W/m/K
401.75 K, 1000 kPa, Fluid (supercritical or subcritical phases) | 0.01916 W/m/K
401.75 K, 1001 kPa, Fluid (supercritical or subcritical phases) | 0.01919 W/m/K
401.76 K, 846 kPa, Fluid (supercritical or subcritical phases) | 0.01915 W/m/K
401.76 K, 1795 kPa, Fluid (supercritical or subcritical phases) | 0.02102 W/m/K
401.76 K, 1796 kPa, Fluid (supercritical or subcritical phases) | 0.02099 W/m/K
401.78 K, 1514 kPa, Fluid (supercritical or subcritical phases) | 0.0199 W/m/K
401.79 K, 1515 kPa, Fluid (supercritical or subcritical phases) | 0.01993 W/m/K
401.82 K, 1408 kPa, Fluid (supercritical or subcritical phases) | 0.01967 W/m/K
401.83 K, 1407 kPa, Fluid (supercritical or subcritical phases) | 0.01973 W/m/K
401.84 K, 675 kPa, Fluid (supercritical or subcritical phases) | 0.01911 W/m/K
401.86 K, 1307 kPa, Fluid (supercritical or subcritical phases) | 0.01952 W/m/K
401.87 K, 1716 kPa, Fluid (supercritical or subcritical phases) | 0.02077 W/m/K
401.88 K, 1715 kPa, Fluid (supercritical or subcritical phases) | 0.02074 W/m/K
401.91 K, 1202 kPa, Fluid (supercritical or subcritical phases) | 0.01943 W/m/K
401.91 K, 1203 kPa, Fluid (supercritical or subcritical phases) | 0.01941 W/m/K
401.93 K, 1622 kPa, Fluid (supercritical or subcritical phases) | 0.02034 W/m/K
401.94 K, 1105 kPa, Fluid (supercritical or subcritical phases) | 0.01929 W/m/K
401.94 K, 1106 kPa, Fluid (supercritical or subcritical phases) | 0.01933 W/m/K
401.94 K, 1624 kPa, Fluid (supercritical or subcritical phases) | 0.02037 W/m/K
401.96 K, 1796 kPa, Fluid (supercritical or subcritical phases) | 0.02117 W/m/K
401.97 K, 1000 kPa, Fluid (supercritical or subcritical phases) | 0.01921 W/m/K
401.97 K, 1001 kPa, Fluid (supercritical or subcritical phases) | 0.01922 W/m/K
401.97 K, 1796 kPa, Fluid (supercritical or subcritical phases) | 0.02115 W/m/K
401.99 K, 847 kPa, Fluid (supercritical or subcritical phases) | 0.01917 W/m/K
402 K, 845 kPa, Fluid (supercritical or subcritical phases) | 0.01916 W/m/K
402 K, 1514 kPa, Fluid (supercritical or subcritical phases) | 0.01998 W/m/K and 0.02002 W/m/K
402.04 K, 1407 kPa, Fluid (supercritical or subcritical phases) | 0.01972 W/m/K
402.04 K, 1408 kPa, Fluid (supercritical or subcritical phases) | 0.01978 W/m/K
402.07 K, 1716 kPa, Fluid (supercritical or subcritical phases) | 0.02086 W/m/K and 0.02091 W/m/K
402.09 K, 674 kPa, Fluid (supercritical or subcritical phases) | 0.0192 W/m/K
402.09 K, 1306 kPa, Fluid (supercritical or subcritical phases) | 0.01958 W/m/K
402.09 K, 1307 kPa, Fluid (supercritical or subcritical phases) | 0.01963 W/m/K
402.12 K, 33574 kPa, Liquid | 0.0762 W/m/K
402.13 K, 1203 kPa, Fluid (supercritical or subcritical phases) | 0.01947 W/m/K
402.14 K, 1203 kPa, Fluid (supercritical or subcritical phases) | 0.01946 W/m/K
402.15 K, 1623 kPa, Fluid (supercritical or subcritical phases) | 0.02048 W/m/K
402.17 K, 1105 kPa, Fluid (supercritical or subcritical phases) | 0.01933 W/m/K and 0.01934 W/m/K
402.19 K, 1796 kPa, Fluid (supercritical or subcritical phases) | 0.02136 W/m/K and 0.02138 W/m/K
402.2 K, 24990 kPa, Liquid | 0.07177 W/m/K
402.2 K, 25009 kPa, Liquid | 0.07171 W/m/K
402.21 K, 1000 kPa, Fluid (supercritical or subcritical phases) | 0.01925 W/m/K
402.22 K, 1851 kPa, Liquid | 0.05439 W/m/K
402.22 K, 1852 kPa, Liquid | 0.05442 W/m/K
402.23 K, 846 kPa, Fluid (supercritical or subcritical phases) | 0.01918 W/m/K
402.23 K, 1515 kPa, Fluid (supercritical or subcritical phases) | 0.02013 W/m/K and 0.02014 W/m/K
402.24 K, 847 kPa, Fluid (supercritical or subcritical phases) | 0.01925 W/m/K
402.25 K, 13371 kPa, Liquid | 0.06482 W/m/K
402.26 K, 13368 kPa, Liquid | 0.06479 W/m/K
402.27 K, 1408 kPa, Fluid (supercritical or subcritical phases) | 0.01984 W/m/K and 0.01988 W/m/K
402.29 K, 21647 kPa, Liquid | 0.06986 W/m/K
402.29 K, 21648 kPa, Liquid | 0.06987 W/m/K
402.31 K, 1715 kPa, Fluid (supercritical or subcritical phases) | 0.02112 W/m/K and 0.02105 W/m/K
402.31 K, 28736 kPa, Liquid | 0.07366 W/m/K
402.31 K, 28755 kPa, Liquid | 0.0737 W/m/K
402.32 K, 5982 kPa, Liquid | 0.0589 W/m/K and 0.05892 W/m/K
402.32 K, 11080 kPa, Liquid | 0.06308 W/m/K
402.32 K, 11097 kPa, Liquid | 0.06313 W/m/K
402.33 K, 1306 kPa, Fluid (supercritical or subcritical phases) | 0.01962 W/m/K and 0.01976 W/m/K
